Data: EP3381907A1, “SYMMETRICAL 2-AMINOPHENYL-BENZAZOLYL-5-ACETATE COMPOUNDS AND THEIR USE AS ANTI-HEPARANASE” (Leadiant Biosciences SA, priority 2017, dated 2018)

What was measured:
[1] = test system: U87MG (human glioblastoma astrocytoma); assay: Cell adhesion assay on matrigel coated wells, U87MG; format: cell-based; conditions: test compound at 2.5 µM, percent of adhesion with respect to the control (100%)
Procedure: Cell surface, non-integrin molecules such as heparan sulfate proteoglycans (HSPGs) may be involved in the regulation of early adhesive stages of cell-ECM interactions. A cell adhesion assay has been employed to determine if the newly designed heparanase inhibitors were able to interfere with adhesion properties of cancer cells.
HT1080 (human fibrosarcoma) and U87MG (human glioblastoma astrocytoma) cells were treated for 18-20 h with test compounds in complete medium supplemented with 10% FCS. Then cells were collected, washed in complete medium, and added to matrigel coated wells in triplicate, at previously identified optimal seeding density, and incubated at 37 °C in complete medium for times ranging from 15 minutes to 4h, according to the cell line. After incubation, the wells were washed three times with serum-free medium and the remaining firmly attached cells were stained with crystal-violet 0.1%. Optical density was measured at 560 nm by Victor 3 (Perkin-Elmer) plate analyzer. Each experiment was repeated three times.
Table 3. […] In Invasion assay, data were expressed as the percent invasion (range) with respect to cell migration through uncoated insert membrane. In Adhesion assay, data were expressed as the percent of adhesion with respect to the control (100%). • Legend • ++: 50-90% • + : < 50% • - : Not Active

HPSE-1 = assay: Real-Time quantitative PCR of HPSE-1 mRNA in HT1080 cells; format: cell-based, human; conditions: 24 h
Procedure: To evaluate the effect of heparanase inhibitors on the tumor transcription of genes encoding for proangiogenic factors, such as FGF1/2, VEGF, MMP-9, HSPE-1, the relative mRNA levels were analyzed by quantitative Real-Time Quantitative PCR. To perform the assay, HT1080 (human fibrosarcoma) cells were cultured in complete medium containing 10%FCS (fetal calf serum). Cells were plated in 24-well plates and treated at fixed concentration (i.e., highest non-toxic concentration) of test compounds. After 24 h, cells were detached, collected and total RNA extracted by RNeasy Mini Kit (QIAGEN). Following reverse transcription step, FGF1/2, VEGF, MMP-9, HSPE-1 mRNA levels, were quantified by qPCR using the advanced Universal SYBR Green Supermix (Bio Rad) and ABI PRISM 7900HT Thermal Cycler System (Perkin Elmer), according to the manufacturer's instructions. Appropriate no-RT and non-template controls were included in each 96-well PCR reaction, and dissociation analysis was performed at the end of each run to confirm the specificity of the reaction. Relative levels of RNA were calculated using the ddCt method. Standard curve and sample data were run in duplicate.
In the Table 5 a mean value is reported.

Structure (SMILES): O=C(O)Cc1ccc2oc(-c3ccc(NC(=O)Nc4ccc(-c5nc6cc(CC(=O)O)ccc6o5)cc4F)c(F)c3)nc2c1 [Compound 20, 2,2'-(((Carbonylbis(azanediyl))bis(3-fluoro-4,1-phenylene))bis(benzo[d]oxazole-2,5-diyl))diacetic acid]
- Adhesion Assay (%) U87MG [1]: 64.90%
- Gene Expression (% mRNA vs. control) HPSE-1 (HPSE-1; 2.5 uM): ∼ 100%

Structure (SMILES): O=C(O)CNC(=O)Cc1ccc2oc(-c3ccc(NC(=O)Nc4ccc(-c5nc6cc(CC(=O)NCC(=O)O)ccc6o5)cc4F)c(F)c3)nc2c1 [Compound 25, 2,2'-((2,2'-(((Carbonylbis(azanediyl))bis(3-fluoro-4,1-phenylene))bis(benzo[d]oxazole-2,5-diyl))bis(acetyl))bis(azanediyl))diacetic acid]
- Adhesion Assay (%) U87MG [1]: 12.30%
- Gene Expression (% mRNA vs. control) HPSE-1 (HPSE-1; 10.0 uM): ∼ 62%
